The values below come from patent US11173192B2 (priority 2016, dated 2021).

Where no end group is shown, it is not given here.

In data set [1] the target is T1, binding of PCBP2 to ITCH E3 ligase (Homo sapiens, UniProt Q15366).
T1 construct: FLAG-, Strep-, His-, or GST-tagged full-length and truncated PCBP2 were also prepared; expressed in transfected cells
The data set can be described thus: GST precipitation of the PCBP2-ITCH interaction in the presence of EPRS. Type of data set: cell-based.

Data set [2] deals with MAVS. The following applies: PCBP2-transfected 293T cells, various concentrations of EPRS.
Procedure: For immunoblotting analysis, cells were lysed with RIPA buffer (20 mM Tris-HCl, pH 7.4, 150 mM NaCl, 1% NP-40, and 1 mM EDTA) containing a protease inhibitor cocktail and a phosphatase inhibitor cocktail (Roche). Whole cell lysates (50 μg to 100 μg) were subjected to SDS-PAGE, followed by immunoblotting with respective antibodies.
Data set [3] deals with T2, interaction between PCBP2 and MAVS (Homo sapiens, UniProt Q15366).
T2 construct: FLAG-, Strep-, His-, or GST-tagged full-length and truncated PCBP2 were also prepared; expressed in transfected cells; host or cells: 293T
The data set can be described thus: GST precipitation of the PCBP2-MAVS interaction in 293T cells with various amounts of EPRS. Type of data set: cell-based. The following applies: 293T cells transfected with MAVS and PCBP2, various amounts of EPRS.

Data set [4] relates to MAVS. To be noted: 293T cells expressing EPRS, PCBP2, ITCH, Ub; MG-132.
The next data set has as its system VSV. Type of data set: cell-based, vesicular stomatitis virus (VSV).
The test system of data set [5] is VSV-infected RAW264.7 cells. In kind it is cell-based.
The test system of another data set is VSV-Indiana. Also on record: species or system mice. To be noted: in vivo, iv.
A further data set relates to 293T cells. The data set can be described thus: MTS cytotoxicity assay, 293T cells. Type of data set: cell-based. The following applies: 12 or 24 hours. The protocol:
(§1) HEK293T or RAW264.7 cells were seeded in 96-well plates (10,000 per well) before treatment with Tat-Epep (20-200 μM) for 0-24 hours. Cytotoxicity was determined in a colorimetric assay using MTS [3-(4,5-dimethylthiazole-2-yl)-5-(carboxymethoxyphenyl)-2-(4-sulfophenyl)-2H-tetrazolium salt] (Promega) 20 μL of MTS was added to each well at 37° C. for 1 hour. Optical density at 490 nm was recorded using an automated microplate reader (BioTek). Background absorbance at 630 nm was subtracted from each sample reading.
For orientation: Formazan colour is commonly taken as a measure of viable cells.

For another data set, the system named is RAW264.7 cells. As to the kind of experiment: MTS cytotoxicity assay, RAW264.7 cells. Type of data set: cell-based. The following applies: various concentrations, 12 hours. The protocol:
as §1

In a further data set the target is PCBP2 KH1 (aa 11-82) (Homo sapiens, UniProt Q15366). The data set can be described thus: In vitro pull-down of purified EPRS domains with PCBP2 KH1. The following applies: purified His-tagged EPRS domains, GST-fused PCBP2 KH1.
The target in another data set is T3, PCBP2 (Homo sapiens, UniProt Q15366).
T3 construct: FLAG-, Strep-, His-, or GST-tagged full-length and truncated PCBP2 were also prepared; expressed in transfected cells; host or cells: 293T
The data set can be described thus: Co-IP of EPRS or its fragments with PCBP2 in 293T cells. In kind it is binding. The following applies: 293T cells transfected with PCBP2 and EPRS plasmids. The protocol:
For immunoprecipitation, cell lysates were pre-cleared by incubation with protein A beads for 1 hour at 4° C. The pre-cleared cell lysates were incubated overnight at 4° C. with the respective antibodies, followed by incubation with 30 μL of protein A/G PLUS-agarose beads for 3 to 4 hours at 4° C. The immunoprecipitates were then collected and washed five times with a lysis buffer before immunoblotting analysis.

T1 sequence (Q15366 whole entry, the tested form may be a part): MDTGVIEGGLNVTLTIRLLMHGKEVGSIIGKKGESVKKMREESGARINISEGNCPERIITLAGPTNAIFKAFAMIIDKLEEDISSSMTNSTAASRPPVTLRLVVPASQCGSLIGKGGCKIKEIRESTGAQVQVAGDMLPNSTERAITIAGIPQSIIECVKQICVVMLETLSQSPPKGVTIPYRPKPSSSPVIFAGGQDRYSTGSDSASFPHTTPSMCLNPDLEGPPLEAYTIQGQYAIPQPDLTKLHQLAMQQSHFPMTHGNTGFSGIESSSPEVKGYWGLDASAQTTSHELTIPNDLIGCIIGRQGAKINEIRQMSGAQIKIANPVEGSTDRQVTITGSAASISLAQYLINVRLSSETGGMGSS
T1 sequence (Q96J02 whole entry partner, the tested form may be a part): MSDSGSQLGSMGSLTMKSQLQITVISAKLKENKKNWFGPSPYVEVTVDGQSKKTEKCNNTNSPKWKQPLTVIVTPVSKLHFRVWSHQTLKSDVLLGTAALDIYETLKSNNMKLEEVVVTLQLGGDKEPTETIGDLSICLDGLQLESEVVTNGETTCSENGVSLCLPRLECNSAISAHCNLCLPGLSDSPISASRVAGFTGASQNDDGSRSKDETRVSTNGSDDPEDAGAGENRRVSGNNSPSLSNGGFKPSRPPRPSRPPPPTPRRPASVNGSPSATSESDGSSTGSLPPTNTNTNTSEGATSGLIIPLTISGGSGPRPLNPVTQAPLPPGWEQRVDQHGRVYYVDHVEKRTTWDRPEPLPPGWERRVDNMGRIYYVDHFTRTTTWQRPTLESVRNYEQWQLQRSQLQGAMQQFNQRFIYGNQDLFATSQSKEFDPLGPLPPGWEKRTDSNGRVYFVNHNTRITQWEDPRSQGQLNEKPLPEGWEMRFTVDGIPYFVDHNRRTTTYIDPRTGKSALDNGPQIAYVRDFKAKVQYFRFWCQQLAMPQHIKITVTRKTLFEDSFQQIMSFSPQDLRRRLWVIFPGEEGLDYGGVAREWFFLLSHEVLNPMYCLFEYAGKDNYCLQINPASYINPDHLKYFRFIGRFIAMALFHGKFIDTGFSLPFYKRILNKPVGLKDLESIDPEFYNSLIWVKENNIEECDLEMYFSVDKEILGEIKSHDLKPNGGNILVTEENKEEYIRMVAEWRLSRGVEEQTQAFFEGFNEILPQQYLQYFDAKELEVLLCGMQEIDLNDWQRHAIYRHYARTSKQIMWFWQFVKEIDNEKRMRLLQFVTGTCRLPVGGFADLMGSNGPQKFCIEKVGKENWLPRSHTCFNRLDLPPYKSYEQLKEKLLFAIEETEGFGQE
T2 sequence (Q15366 whole entry, the tested form may be a part): as the sequence (Q15366 whole entry, the tested form may be a part) above
T3 sequence (Q15366 whole entry, species assumed, the tested form may be a part): as the sequence (Q15366 whole entry, the tested form may be a part) above
PCBP2 KH1 (aa 11-82), sequence (Q15366 11-82): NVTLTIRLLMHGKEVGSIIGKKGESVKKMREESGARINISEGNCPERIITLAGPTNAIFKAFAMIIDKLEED

As to “EPRS: glutamyl-prolyl-tRNA synthetase protein, 1512 aa, SEQ ID NO: 63; expressed from plasmid or purified”, in data set [1], the “binding of PCBP2 to ITCH E3 ligase” value is recorded as “did not disrupt the binding of PCBP2 to ITCH E3 ligase”. Further, in the data set on MAVS [2], the “PCBP2-induced degradation of endogenous MAVS” value is “rescued from this degradation” and the “PCBP2-induced degradation of exogenous MAVS” value is reported as “rescued from this degradation”. In addition, in data set [3], the “interaction between PCBP2 and MAVS” value was “significantly reduced”. Further, in the data set on MAVS [4], the “PCBP2-mediated ubiquitination of exogenous MAVS-FLAG” value is “inhibited PCBP2-mediated ubiquitination of MAVS in a dose-dependent manner” and the “endogenous ubiquitination of MAVS” value is recorded as “significantly attenuated in the presence of EPRS”.

Turning to “YGRKKRRQRRR-GG-KWDVSTTKARVAPEKKQDVGK (YGRKKRRQRRRGGKWDVSTTKARVAPEKKQDVGK; New Tat-Epep)”, the “viral replication (fluorescence images)” value in the data set with VSV was “stronger inhibitory effect”. Further, in data set [5], the “increase in IFN-β secretion as compared with Tat-Epep” value is reported as 2- to 3 fold and the “increase in IL-6 secretion as compared with Tat-Epep” value was 2- to 3 fold. The “VSV viral titers in mouse brains” value in the data set with VSV-Indiana is “decrease VSV viral titers in the mouse brains”.

Regarding “YGRKKRRQRRRGGDVSTTKARVAPEKKQDVGKFVELPGAEMG [Tat-Epep]”, in the data set on 293T cells, the “viability of 293T cells” value is “no effect on the viability”. In the data set on RAW264.7 cells, the “viability of RAW264.7 cells” value is on record as “no effect on the viability”.

B1: EPRS (aa 1-196): N-terminal EPRS fragment containing GST-like domain and linker region L1 (protein)
chain: MATLSLTVNSGDPPLGALLAVEHVKDDVSISVEEGKENILHVSENVIFTDVNSILRYLARVATTAGLYGSNLMEHTEIDHWLEFSATKLSSCDSFTSTINELNHCLSLRTYLVGNSLSLADLCVWATLKGNAAWQEQLKQKKAPVHVKRWFGFLEAQQAFQSVGTKWDVSTTKARVAPEKKQDVGKFVELPGAEMG
As to B1, in the data set with PCBP2 KH1 (aa 11-82), the “direct interaction with PCBP2 KH1 (in vitro precipitation)” value is on record as “specifically interacted”. Further, the “interaction with PCBP2 (co-IP)” value with PCBP2 is listed as “crucial for the interaction with PCBP2”.
